Measurements as given in US9359589B2, “Use of at least one chelating agent introduced into the culture medium of magnetotactic bacteria in order to stimulate the growth thereof” (UNIVERSITE PIERRE ET MARIE CURIE (PARIS 6), priority 2011, dated 2016).

Experiments:
Type in all cases: cell-based
[1] = tested on: Magnetotactic bacteria of the Magnetospirillum magneticum species, strain AMB-1; assay: Magnetosome production after 7 days of culture (iron oxide concentration of extracted magnetosome chains, absorption at 480 nm)
Description: (§1) Magnetotactic bacteria of the Magnetospirillum magneticum species, strain AMB-1, available from ATCC under the reference ATCC No. 700274, were used.
(§2) In order to prepare the culture medium containing the various iron-chelating agents, said agents were introduced at various concentrations into the culture medium described above (section 1.2).
The cells were harvested during the stationary phase.
The cells are harvested during the stationary phase by centrifugation at 4000 g for 20 minutes. The supernatant is removed and the cells are resuspended in 3 ml of deionized water.
To extract the magnetosome chains, 1 ml of cell suspension obtained as described above is again centrifuged and then resuspended in a 10 mM Tris-HCl buffer at pH 7.4, and then the cell suspension is subjected to a sonication step for 120 minutes at a power of 30 W, in order to lyze the cells and to release the magnetosome chains. Sonication periods of 60 and 180 minutes can also be used. For a sonication period of less than 60 minutes, the bacteria are not all lyzed. For a sonication period of greater than 180 minutes, the beginnings of aggregation are observed owing to the presence of individual magnetosomes which are aggregated.
After sonication, the magnetosome chain suspension is separated by placing a powerful neodynium magnet (0.1-1 T) in proximity to the tube, and the magnetic material is then recovered in the form of a pellet.
The maghemite concentration of a suspension of magnetosome chains extracted from magnetotactic bacteria was measured using the measurement of the absorption at 480 nm of this suspension. The method of calibration between the value of the absorption and the amount of maghemite is described elsewhere (PCT/EP2010/067765). These measurements were carried out in order to determine the amount of magnetosome chains produced by the magnetotactic bacteria after a given growth time. The amounts of magnetosome chains produced in the absence and in the presence of the chelating agents were then compared.
(§3) In this example, the magnetotactic bacteria were cultured in the presence of various chelating agents and harvested after 7 days. The absorption and the iron oxide concentration of the magnetosome chains extracted from the bacteria were then measured.

[2] = tested on: Magnetotactic bacteria of the Magnetospirillum magneticum species, strain AMB-1; assay: Growth of magnetotactic bacteria after 7 days of culture in 1 liter of medium with chelating agent (absorption at 565 nm); conditions: for absorption measured at 565 nm of bacterial suspension compared with bacteria cultured in the absence of chelating agent: 1 liter
Description: as §1
The cells were placed in culture under microanaerobic conditions, i.e. in a culture medium which has not been degassed but which is closed and has no contact with oxygen. The bacteria were cultured at laboratory temperature (approximately 25° C.) in a liquid culture in a slighly modified MSGM medium (medium ATCC 1653), the makeup of which is described hereinafter.
For a volume of one liter, the culture medium contains 0.68 g of monobasic potassium phosphate, 0.85 g of sodium succinate, 0.57 g of sodium tartrate, 0.083 g of sodium acetate, 225 μl of resazurin at 0.2%, 0.17 g of sodium nitrate, 0.04 g of L-ascorbic acid, 2 ml of a 10 mM iron quinate solution, 10 ml of a Woolf vitamin solution and 5 ml of a Woolf mineral solution.
as §2, §3

[3] = tested on: Magnetospirillum magneticum; assay: Growth over time of magnetotactic bacteria in 10 ml tubes with chelating agent (absorbance, O.D. at 565 nm, D2-D9); conditions: for effect on cell growth at high concentration: 400 μM; for effect on the growth of the magnetotactic bacteria (absorbance compared with cultures without the agent): 0.4-400 μM, D2 to D9, 10 ml tubes; for growth curves (fitted absorption, first 7 days) relative to bacteria cultured in the absence of the agent: all concentrations except 400 μM; for period of culture during which the effects are greatest: exponential growth phase; for multiplication of the bacteria during the first 4 days: first 4 days of growth
Description: Cultures of Magnetospirillum magneticum were prepared as described in example 1. The bacteria were cultured in 10 milliliter tubes. A volume of 100 microliters of culture medium was inoculated, at time “D0” (Day 0), with 0.1×10^6 bacterial cells. The cultures in suspension were placed at ambient temperature (approximately 25° C.) and the growth of the bacteria over time was monitored by measuring O.D. at the wavelength of 565 nanometers.
The following series of culture samples were prepared: • samples of control culture, comprising the bacterial cells in the culture medium free of chelating agent; • a series of culture samples containing the chelating agent rhodamine B, at increasing concentrations of 0.4 μM, 4 μM, 40 μm and 400 μM; • a series of culture samples containing the chelating agent ascorbic acid, at increasing concentrations of 0.4 μM, 4 μM, 40 μM and 400 μM; • a series of culture samples containing the chelating agent erythrosine, at increasing concentrations of 0.4 μM, 40 μM and 400 μM; • a series of culture samples containing the chelating agent folic acid, at increasing concentrations of 0.4 μM, 4 μM, 40 μM and 400 μM;
(§4) The bacteria were cultured for 12 days in a tube and the absorbance over the whole of the spectrum ranging from 400 to 700 nanometers was measured, respectively, (i) on the second day (D2) after inoculation, (ii) on the third day (D3) after inoculation, (iii) on the fourth day (D4) after inoculation, (iv) on the seventh day (D7) after inoculation, (v) on the eighth day (D8) after inoculation and (vi) on the ninth day (D9) after inoculation. The magnetic moments of various suspensions of magnetotactic bacteria deposited on blotting paper were measured on days D7, D8 and D9.

[4] = tested on: Magnetospirillum magneticum; assay: Magnetic moment of suspensions of magnetotactic bacteria (SQUID, 500 Oe or 1000 Oe) on D7, D8, D9
Description: The magnetic moment of various suspensions of magnetotactic bacteria deposited on blotting paper, under the application of a magnetic field of 500 Oe or of 1000 Oe, was also measured. The magnetic moment was measured for 10 ml of suspension of magnetotactic bacteria harvested at various days of growth, centrifuged, and then resuspended in 100 μl of distilled water. These 100 μl containing the magnetotactic bacteria are then redeposited on nonmagnetic absorbent paper which itself is inserted into a capsule that is placed in the magnetometer in order to carry out the magnetic measurements. […]
Cultures of Magnetospirillum magneticum were prepared as described in example 1. […] The cultures in suspension were placed at ambient temperature (approximately 25° C.) and the growth of the bacteria over time was monitored by measuring O.D. at the wavelength of 565 nanometers.
as §4, with “The magnetic moments of various suspensions of magnetotactic bacteria deposited on blotting paper were measured on days D7, D8 and D9.” left out

O=S(=O)(O)CCCN1CCOCC1 [3-(N-morpholino)propanesulfonic acid]
magnetosome production (iron oxide concentration) compared with the control bacteria ([1]; chelating agent 0.4 μM): increased
absorption measured at 565 nm of bacterial suspension compared with bacteria cultured in the absence of chelating agent ([2]; chelating agent 4 μM): greater
absorption measured at 565 nm of bacterial suspension compared with bacteria cultured in the absence of chelating agent ([2]; chelating agent 40 μM): greater

O=S(=O)(O)CCCNC1CCCCC1 [3-[cyclohexylamino]-1-propanesulfonic acid]
magnetosome production (iron oxide concentration) compared with the control bacteria ([1]; chelating agent 0.4 μM): increased
magnetosome production (iron oxide concentration) compared with the control bacteria ([1]; chelating agent 4 μM): increased
magnetosome production (iron oxide concentration) compared with the control bacteria ([1]; chelating agent 40 μM): increased
absorption measured at 565 nm of bacterial suspension compared with bacteria cultured in the absence of chelating agent ([2]; chelating agent 0.4 μM): greater
absorption measured at 565 nm of bacterial suspension compared with bacteria cultured in the absence of chelating agent ([2]; chelating agent 4 μM): greater
absorption measured at 565 nm of bacterial suspension compared with bacteria cultured in the absence of chelating agent ([2]; chelating agent 40 μM): greater

O=C(O)CN(CCN(CC(=O)O)CC(=O)O)CC(=O)O [EDTA, ethylenediaminetetraacetic acid]
magnetosome production (iron oxide concentration) compared with the control bacteria ([1]; chelating agent 0.4 μM): increased
magnetosome production (iron oxide concentration) compared with the control bacteria ([1]; chelating agent 4 μM): increased
absorption measured at 565 nm of bacterial suspension compared with bacteria cultured in the absence of chelating agent ([2]; chelating agent 0.4 μM): greater
absorption measured at 565 nm of bacterial suspension compared with bacteria cultured in the absence of chelating agent ([2]; chelating agent 4 μM): greater
absorption measured at 565 nm of bacterial suspension compared with bacteria cultured in the absence of chelating agent ([2]; chelating agent 40 μM): greater

NCCCC(O)(P(=O)(O)O)P(=O)(O)O [alendronate, reference compound]
magnetosome production (iron oxide concentration) compared with the control bacteria ([1]; chelating agent 0.4 μM): increased
magnetosome production (iron oxide concentration) compared with the control bacteria ([1]; chelating agent 4 μM): increased
magnetosome production (iron oxide concentration) compared with the control bacteria ([1]; chelating agent 40 μM): increased

Nc1ccccc1C(=O)O [anthranilic acid]
magnetosome production (iron oxide concentration) compared with the control bacteria ([1]; chelating agent 0.4 μM): increased
absorption measured at 565 nm of bacterial suspension compared with bacteria cultured in the absence of chelating agent ([2]; chelating agent 0.4 μM): greater

O=C1O[C@H]([C@@H](O)CO)C(O)=C1O [ascorbic acid]
effect on bacterial growth compared with rhodamine B [3]: similar
effect on cell growth at high concentration [3]: rather unfavorable
effect on the growth of the magnetotactic bacteria (absorbance compared with cultures without the agent) [3]: stimulates the growth
concentration giving the most pronounced effect on growth ([3]; after 4 days of culture): 0.4 µM
growth curves (fitted absorption, first 7 days) relative to bacteria cultured in the absence of the agent [3]: above
period of culture during which the effects are greatest [3]: first four days
concentration range of stimulated magnetosome production compared with rhodamine B [4]: wider concentration range

O=C(O)CN(CC(=O)O)Cc1cc2c(cc1O)Oc1cc(O)c(CN(CC(=O)O)CC(=O)O)cc1C21OC(=O)c2ccccc21 [calcein]
magnetosome production (iron oxide concentration) compared with the control bacteria ([1]; chelating agent 4 μM): increased
magnetosome production (iron oxide concentration) compared with the control bacteria ([1]; chelating agent 40 μM): increased
absorption measured at 565 nm of bacterial suspension compared with bacteria cultured in the absence of chelating agent ([2]; chelating agent 4 μM): greater
absorption measured at 565 nm of bacterial suspension compared with bacteria cultured in the absence of chelating agent ([2]; chelating agent 40 μM): greater

O=C(O)CC(O)(CC(=O)O)C(=O)O [citric acid]
magnetosome production (iron oxide concentration) compared with the control bacteria ([1]; chelating agent 4 μM): increased
magnetosome production (iron oxide concentration) compared with the control bacteria ([1]; chelating agent 40 μM): increased
absorption measured at 565 nm of bacterial suspension compared with bacteria cultured in the absence of chelating agent ([2]; chelating agent 4 μM): greater
absorption measured at 565 nm of bacterial suspension compared with bacteria cultured in the absence of chelating agent ([2]; chelating agent 40 μM): greater

O=C1OC2(c3ccccc31)c1cc(I)c(O)c(I)c1Oc1c2cc(I)c(O)c1I [erythrosine]
absorption compared with control bacteria on day D4 ([3]; 0.4 μM): greater
absorption compared with control bacteria on day D4 ([3]; 4 μM): greater
effect on the growth of the magnetotactic bacteria (absorbance compared with cultures without the agent) [3]: stimulates the growth of the magnetotactic bacteria less than rhodamine B or ascorbic acid
absorption compared with control bacteria ([3]; the other days of culture and the other concentrations): either similar to or lower

Nc1nc2ncc(CNc3ccc(C(=O)N[C@@H](CCC(=O)O)C(=O)O)cc3)nc2c(=O)[nH]1 [folic acid]
multiplication of the bacteria during the first 4 days ([3]; 0.4 μM): multiply in greater number
growth of the bacteria during the first two days ([3]; 4 μM, first two days of growth): grow more rapidly
multiplication of the bacteria during the first 4 days ([3]; 40 μM): multiply in greater number
effect on the growth of the magnetotactic bacteria (absorbance compared with cultures without the agent) [3]: stimulates the growth

NCCCCCC(O)(P(=O)(O)O)P(=O)(O)O [neridronate, reference compound]
absorption measured at 565 nm of bacterial suspension compared with bacteria cultured in the absence of chelating agent ([2]; chelating agent 40 μM): greater

NC(=O)c1cccnc1 [nicotinamide]
absorption relative to that of the control bacteria ([2]; chelating agent 40 μM): 1.5-2 times
absorption measured at 565 nm of bacterial suspension compared with bacteria cultured in the absence of chelating agent ([2]; chelating agent 40 μM): greater

CCN(CC)c1ccc2c(-c3ccccc3C(=O)O)c3ccc(=[N+](CC)CC)cc-3oc2c1 [rhodamine B]
magnetosome production (iron oxide concentration) compared with the control bacteria ([1]; chelating agent 0.4 μM): increased
magnetosome production (iron oxide concentration) compared with the control bacteria ([1]; chelating agent 4 μM): increased
magnetosome production (iron oxide concentration) compared with the control bacteria ([1]; chelating agent 40 μM): increased
effect on cell growth at high concentration [3]: rather unfavorable
effect on the growth of the magnetotactic bacteria (absorbance compared with cultures without the agent) [3]: stimulates the growth
growth curves (fitted absorption, first 7 days) relative to bacteria cultured in the absence of the agent [3]: above
period of culture during which the effects are greatest [3]: first six days
absorption measured at 565 nm of bacterial suspension compared with bacteria cultured in the absence of chelating agent ([2]; chelating agent 0.4 μM): greater
absorption measured at 565 nm of bacterial suspension compared with bacteria cultured in the absence of chelating agent ([2]; chelating agent 4 μM): greater
absorption measured at 565 nm of bacterial suspension compared with bacteria cultured in the absence of chelating agent ([2]; chelating agent 40 μM): greater

dextran
magnetosome production (iron oxide concentration) compared with the control bacteria ([1]; chelating agent 40 μM): increased
absorption measured at 565 nm of bacterial suspension compared with bacteria cultured in the absence of chelating agent ([2]; chelating agent 40 μM): greater

hemoglobin
factor of increase of iron oxide production ([1]; 0.4 μM in the culture medium): 7-8
factor of increase of iron oxide production ([1]; 4 μM in the culture medium): 7-8
magnetosome production (iron oxide concentration) compared with the control bacteria ([1]; chelating agent 0.4 μM): increased
magnetosome production (iron oxide concentration) compared with the control bacteria ([1]; chelating agent 4 μM): increased
magnetosome production (iron oxide concentration) compared with the control bacteria ([1]; chelating agent 40 μM): increased
absorption measured at 565 nm of bacterial suspension compared with bacteria cultured in the absence of chelating agent ([2]; chelating agent 0.4 μM): greater
absorption measured at 565 nm of bacterial suspension compared with bacteria cultured in the absence of chelating agent ([2]; chelating agent 4 μM): greater
absorption measured at 565 nm of bacterial suspension compared with bacteria cultured in the absence of chelating agent ([2]; chelating agent 40 μM): greater
